From publication PMC7767381, “Exploring the Anti-Cancer Mechanism of Novel 3,4′-Substituted Diaryl Guanidinium Derivatives” (Pharmaceuticals, 2020)
“Also recorded” adds a separate entry of the source. Counter-ions that a name gives are not always drawn.

Legend:
HL-60 cells = experiment: alamarBlue cell viability assay, HL-60; format: cell-based; details: Homo sapiens, HL-60, 72 h, alamarBlue, 72 h; read-out: HL-60 IC50 ± SEM
From the text: Cell viability and proliferation assays were used to evaluate the in vitro cytotoxicity of all synthesised compounds in a variety of different cancer cell lines using the alamarBlue® viability assay and the results are presented in Table 1 and Table 2. The sensitivity of cancer cells to drugs can often be compromised by PIK3CA, Ras and BRAF mutations. To determine whether such mutations are critical to the efficacy of our new compounds we tested them in a range of cancerous cell lines expressing different mutations. Firstly, we used the HL-60 (human promyelocytic leukaemia, NRas mutated) cell line for general cytotoxicity screening of all compounds. […] Lastly, toxicity against MCF-10A, which is a non-tumorigenic epithelial cell line, was also assessed for one of the most promising compounds (4). The graphs representing the viability results with the HL-60, MCF-7, HeLa, HCT-116, and HKH-2 cancer cell lines for compound 1 and derivatives 2, 3, and 4 are shown in Figures S7–S10 (ESI).
Cells were counted and seeded in 96-well plates at a density of 2 × 10^5 cells/mL for HL-60, 2.5 × 10^4 cells/mL for MCF-7, MCF10A and HeLa, 1 × 10^5 cells/mL for HCT116 and HKH-2, all of them in their respective media. The 96-well plates were then treated with a 1:100 dilution of stock concentrations of drugs or EtOH (1% v/v)/DMSO (0.1% v/v) as vehicle control in triplicate. Three blank wells containing 200 µL RPMI with no cells were also set-up as blanks. After a 72 h incubation, 20 µL of alamarBlue was added to each well. The plates were incubated in darkness at 37 °C for 4–5 h using a Molecular Devices microplate reader, the fluorescence (F) was then read at an excitation wavelength of 544 nm and an emission wavelength of 590 nm. Cell viability was then determined by subtracting the mean blank fluorescence (Fb) from the treated sample fluorescence (Fs) and expressing this as a percentage of the fluorescence of the blanked vehicle control (Fc). […] The results were then plotted as a nonlinear regression, sigmoidal dose-response curves on Prism, from which the IC50 value for each drug was determined. […]
Pharmacy, TCD. It was maintained in Roswell Park Memorial Institute (RPMI) 1640 medium with stable glutamate (GlutaMax I) supplemented with 10% (v/v) fetal bovine serum (FBS), 1% (v/v) penicillin/ streptomycin (pen-strep) and 2 mM L-glutamine. […]
4.4. AlamarBlue ® Cell Viability Assay
Cells were counted and seeded in 96 well plates at a density of 2 × 10^5 cells/mL for HL-60, 2.5× 10^4 cells/mL for MCF-7, MCF10A and HeLa, 1 × 10^5 cells/mL for HCT116 and HKH-2, all of them in their respective media. The 96 well plates were then treated with a 1:100 dilution of stock concentrations of drugs or EtOH (1% v/v)/DMSO (0.1% v/v) as vehicle control in triplicate.
Three blank wells containing 200 µL media with no cells were also set-up as blanks. After a 72 h incubation, 20 µL of AlamarBlue was added to each well. The plates were incubated in darkness at 37 °C for 4-5 h. Using a Molecular Devices microplate reader, the fluorescence (F) was then read at an excitation wavelength of 544 nm and an emission wavelength of 590 nm.
Cell viability was then determined by subtracting the mean blank fluorescence (Fb) from the treated sample fluorescence (Fs) and expressing this as a percentage of the fluorescence of the blanked vehicle control (Fc). […] The results were […]
then plotted as a nonlinear regression, sigmoidal dose-response curves on Prism, from which the IC50 value for each drug was determined.
Fs − Fb x 100 = % Cell Viability
60 cell line in a dose-dependent manner.
(1 picture or pasted object on this page, not shown here)

[1] = system: ERK phosphorylation (MAPK/ERK pathway); experiment: Western immunoblot of ERK phosphorylation in HL-60 extracts; format: cell-based, human; details: HL-60, 5 µM, 16 h
Method: Thus, using Western immunoblot analysis of HL-60 extracts, we investigated the expression and phosphorylation levels of ERK (as an indication of ERK activation), which is the downstream effector of the Ras/BRAF signalling pathway (Figure 6).
HL60s were seeded in T25 flasks at 50 × 10^4 cells/mL and cells were treated with either vehicle [0.5% EtOH (v/v)], 1–4, 9 or 52 (5 µM), as well as 1 (10 µM as reported). After 16 h, cells were collected and washed with PBS. Cell pellets were re-suspended in cold cell lysis buffer (radio-immunoprecipitation assay buffer) supplemented with 1% phosphatase inhibitor cocktail 2 and 3 (Sigma) and 10% protease inhibitor (Roche). Cells were lysed for 30 min on ice. Protein concentration was then determined by BCA assay. Lysates were boiled with Laemmli sample buffer [Tris-HCL 50 mM (pH 6.7), glycerol 10% (w/v), sodium dodecyl sulphate 2% (w/v), bromophenol blue 0.02% (w/v)] containing DTT […] for 10 min at 90 °C. Moreover, 20 µg of lysates were resolved by sodium dodecyl sulphate polyacrylamide gel electrophoresis (SDS-PAGE) and transferred onto PVDF transfer membrane (EMD Millipore). Membranes were blocked with 5% non-fat milk and probed with primary antibodies for ERK and phospho-ERK (Cell Signalling). Anti-GAPDH was used as a loading control (Calbiochem).
Figure 6 Western immunoblot of HL-60 cell extracts following incubation with compounds 2, 3, 4, 9, 52 and 1 (as a control). HL60 cells were seeded at 2 × 10^5 cells/mL and were treated with either vehicle [0.5% EtOH (v/v)], compounds 52, 2, 9, 3 and 4 (5 µM) or compound 1 (5 and (*) 10 µM, as in reference) for 16 h. Cells were lysed and equal amounts of protein were loaded and separated on 15% SDS-PAGE gels, transferred to PVDF membrane and probed with antibodies against total and phosphorylated ERK. Anti-GAPDH was used as a loading control. Results are representative of 2 independent experiments.
HL-60 cells were seeded in T25 flasks at 50 x10^4 cells/mL and treated with either vehicle [0.5% […]
After 16 hours, cells were […]
collected and washed with PBS. Cell pellets were re-suspended in cold cell lysis buffer (radio-immunoprecipitation assay buffer) supplemented with 1% phosphatase inhibitor cocktail 2 and 3 (Sigma) and 10% protease inhibitor (Roche). Cells were lysed for 30 minutes on ice.
Protein concentration was then determined by BCA assay. Lysates were boiled with laemmli sample buffer [Tris-HCL 50 mM (pH 6.7), glycerol 10% (w/v), sodium dodecyl sulphate 2% (w/v), bromophenol blue 0.02% (w/v)] containing DTT […] for 10 min. at 90 °C. Also 20 µg of lysates were resolved by sodium dodecyl sulphate polyacrylamide gel electrophoresis (SDS - PAGE) and transferred onto PVDF transfer membrane (EMD Millipore). Membranes were blocked with 5% non-fat milk and probed with primary antibodies for ERK and phospho-ERK (Cell Signaling). Anti-GAPDH was used as a loading control (Calbiochem).

Compound | melting point [°C] | IC50 (HL-60 cells) [µM] | effect on ERK phosphorylation (Ras/BRAF pathway) [1]
N=C(N)Nc1ccc(Oc2cccc(NC(=N)Nc3ccc(F)c(F)c3)c2)cc1 (as salt: hydrochloride) [Compound 6, 1-(3:4-Di-fluorophenyl)-2-(3-(4-guanidinophenoxy)phenyl)guanidine dihydrochloride] | 158 to 160 |  | 
N=C(N)Nc1ccc(Oc2cc(F)cc(Nc3ccc(Cl)c(C(F)(F)F)c3)c2)cc1 (as salt: hydrochloride) [Compound 36, 1-(4-(3-((4-Chloro-3-(trifluormethyl)phenyl)amino)-5-fluorophenoxy)phenyl)guanidine hydrochloride] | 92 to 94 |  | 
N=C(N)Nc1ccc(Oc2cccc(NC(=N)Nc3ccc(F)c(F)c3)c2)cc1 [Compound 6, 1-(3:4-Di-fluorophenyl)-2-(3-(4-guanidinophenoxy)phenyl)guanidine dihydrochloride] |  | > 100 | 
Cl.Cl.N=C(N)Nc1ccc(Oc2cccc(N=C(N)Nc3ccc(Br)c(C(F)(F)F)c3)c2)cc1 [Compound 9, 1-(4-Bromo-3-(trifluoromethyl)phenyl)-2-(3-(4-guanidinophenoxy)phenyl)guanidine dihydrochloride] |  | 2.07 ± 0.33 | inhibiting ERK phosphorylation; also recorded: abrogates ERK activation
Cl.N=C(N)Nc1ccc(Oc2cccc(Nc3ccc(Cl)cc3)c2)cc1 [Compound 28, 1-(4-(3-((4-Chlorophenyl)amino)phenoxy)phenyl)guanidine hydrochloride] | 50 to 52 | 7.5 ± 0.05 | 
Cl.N=C(N)Nc1ccc(Oc2cccc(Nc3cccc(C(F)(F)F)c3)c2)cc1 [Compound 29, 1-(4-(3-((3-(Trifluoromethyl)phenyl)amino)phenoxy)phenyl)guanidine hydrochloride] | 93 to 95 | 4.64 ± 0.83 | 
Cl.N=C(N)Nc1ccc(Oc2cccc(Nc3cccc(S(F)(F)(F)(F)F)c3)c2)cc1 [Compound 30, 1-(4-(3-((3-(Pentafluorosulfanyl)phenyl)amino)phenoxy)phenyl)guanidine hydrochloride] | 104 to 106 | 3.23 ± 0.36 | 
N=C(N)Nc1ccc(Oc2cc(F)cc(Nc3ccc(Cl)c(C(F)(F)F)c3)c2)cc1 [Compound 36, 1-(4-(3-((4-Chloro-3-(trifluormethyl)phenyl)amino)-5-fluorophenoxy)phenyl)guanidine hydrochloride] |  | 4.07 ± 0.1 | 
N=C(N)Nc1ccc(Oc2cccc(NC(=N)Nc3ccc(F)c(F)c3)c2)cn1 [Compound 49, 1-(3,4-Di-fluorophenyl)-3-(3-((6-guanidinopyridin-3-yl)oxy)phenyl)guanidine dihydrochloride] |  | 11.6 ± 0.27 | 
N=C(N)Nc1ccc(Oc2cccc(NC(=N)Nc3ccc(Br)cc3)c2)cn1 [Compound 51, 1-(4-Bromophenyl)-3-(3-((6-guanidinopyridin-3-yl)oxy)phenyl)guanidine dihydrochloride] |  | 9.37 ± 0.54 | 
Cl.Cl.N=C(N)Nc1ccc(Oc2cccc(NC(=N)Nc3ccc(Br)c(C(F)(F)F)c3)c2)cn1 [Compound 52, 1-(4-Bromo-3-(trifluoromethyl)phenyl)-3-(3-((6-guanidinopyridin-3-yl)oxy)phenyl) guanidine dihydrochloride] |  | 1.53 ± 0.23 | inhibiting ERK phosphorylation; also recorded: abrogates ERK activation
NS(=O)(=O)Nc1ccc(Oc2cccc(Nc3ccc(Cl)c(C(F)(F)F)c3)c2)cc1 [Compound 75] | 124 to 126 | 9.14 ± 0.69 | 

The next lines start with results.

melting point [°C] | IC50 (HL-60 cells) [µM] | Compound | effect on ERK phosphorylation (Ras/BRAF pathway) [1]
 | > 100 | N=C(N)Nc1ccc(Oc2cccc(N=C(N)Nc3ccc(F)cc3)c2)cc1 [Compound 5, 1-(4-Fluorophenyl)-2-(3-(4-guanidinophenoxy)phenyl)guanidine dihydrochloride] | 
 | 8.63 ± 0.51 | N=C(N)Nc1ccc(Oc2cccc(N=C(N)Nc3ccc(I)cc3F)c2)cc1 [Compound 7, 1-(2-Fluoro-4-iodophenyl)-2-(3-(4-guanidinophenoxy)phenyl)guanidine dihydrochloride] | 
 | 15.3 ± 1.98 | N=C(N)Nc1ccc(Oc2cccc(N=C(N)Nc3ccc(Br)cc3)c2)cc1 [Compound 8, 1-(4-Bromophenyl)-2-(3-(4-guanidinophenoxy)phenyl)guanidine dihydrochloride] | 
 | 8.85 ± 0.55 | N=C(N)Nc1cccc(Oc2ccc(N=C(N)Nc3ccc(I)cc3F)cc2)c1 [Compound 10, 1-(2-Fluoro-4-iodophenyl)-2-(4-(3-guanidinophenoxy)phenyl)guanidine dihydrochloride] | 
 | 11 ± 0.64 | N=C(N)Nc1cccc(Oc2ccc(N=C(N)Nc3ccc(Br)c(C(F)(F)F)c3)cc2)c1 [Compound 11, 1-(4-Bromo-3-(trifluoromethyl)phenyl)-2-(4-(3-guanidinophenoxy)phenyl)guanidine dihydrochloride] | 
 | 8.33 ± 0.32 | N=C(N)Nc1ccc(Oc2cccc(NC(=N)Nc3ccc(I)cc3F)c2)cn1 [Compound 50, 1-(2-Fluoro-4-iodophenyl)-3-(3-((6-guanidinopyridin-3-yl)oxy)phenyl)guanidine dihydrochloride] | 
